Where two headings read alike, the source gives them in different places.
Biological target: T1, factor Xa (Homo sapiens, UniProt P00742)
T1 construct: an F Xa reagent consisting of a lyophilized plasma fraction containing factor Xa; purchased Siemens Healthcare Diagnostics (Berichrom heparin assay, F Xa reagent); host or cells: plasma fraction
Experiment: Determination of the F Xa binding constant (Ki) of peptide aldehyde ligands, chromogenic assay with Berichrom heparin assay reagents, Dixon plot
Format: biochemical
Procedure: The kinetic data of the peptide aldehyde ligands were determined in chromogenic assay formats by measuring the rate of hydrolysis of chromogenic peptide substrates which compete with the peptide aldehyde ligands for binding to the active site of the particular enzyme, at various substrate concentrations and peptide aldehyde-ligand concentrations. The binding constant (Ki) was determined by a known method (Dixon, M., 1953, Biochem J, 55, 170-171).
The F Xa binding constant was determined using the reagents of the Berichrom® heparin assay from Siemens Healthcare Diagnostics. The Berichrom® heparin assay consists of: an F Xa reagent consisting of a lyophilized plasma fraction containing factor Xa, and additives such as Tris, NaCl, EDTA and preservatives, a chromogenic substrate reagent (Z-D-Leu-Gly-Arg-ANBA-methyl-amide), a dilution reagent for reconstitution, and a dextran sulfate reagent consisting of lyophilized dextran sulfate.
After reconstitution in 10 ml of dilution reagent, the dextran sulfate concentration is 0.02 g/l. The F Xa reagent is reconstituted with the reconstituted dextran sulfate reagent. The substrate reagent, after constitution with 2 ml of deionized water, contains 4 mmol/l Z-D-Leu-Gly-Arg-ANBA-methyl-amide. Dilutions of the substrate reagent were prepared with deionized water. The peptide aldehyde ligands prepared according to example 1 were dissolved in water and used as sample. The assays were carried out automatically in a BCS® XP coagulation analyzer (Siemens Healthcare Diagnostics, Marburg, Germany).
A reaction mix was mixed together as follows:
15 μl of sample (peptide aldehyde ligand B-r-G-R—H or B-f-P—R—H), […]
30 μl of substrate reagent (Z-D-Leu-Gly-Arg-ANBA-methyl-amide).
The reaction rate in mE/min was determined on the basis of the increase in optical density of the reaction mix at a wavelength of 405 nm. For this, the optical density of the reaction mixes was determined in a time interval from 10 to 70 seconds.

T1 sequence (P00742 235-488 limits assumed): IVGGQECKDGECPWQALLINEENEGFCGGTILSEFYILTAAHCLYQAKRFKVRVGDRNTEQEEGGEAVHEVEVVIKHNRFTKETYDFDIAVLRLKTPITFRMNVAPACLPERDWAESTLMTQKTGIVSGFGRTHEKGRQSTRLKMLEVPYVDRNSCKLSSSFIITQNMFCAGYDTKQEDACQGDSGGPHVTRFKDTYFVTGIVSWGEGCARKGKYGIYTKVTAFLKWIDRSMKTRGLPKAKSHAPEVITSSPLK
T1 sequence (P00742 41-179 partner limits assumed): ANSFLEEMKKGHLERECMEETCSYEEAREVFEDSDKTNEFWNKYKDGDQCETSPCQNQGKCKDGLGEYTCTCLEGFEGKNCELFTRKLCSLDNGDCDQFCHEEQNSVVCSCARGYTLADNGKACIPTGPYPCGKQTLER

In the case of N=C(N)NCCC[C@@H](C=O)NC(=O)[C@@H]1CCCN1C(=O)[C@@H](Cc1ccccc1)NC(=O)CCC(=O)NCCCOCCOCCOCCCNC(=O)CCCC[C@@H]1SC[C@@H]2NC(=O)N[C@@H]21 [B-f-P-R-H, biotinyl-Ttds-D-Phe-Pro-Arg-H], the 1/Reaction rate (CB-f-P-R-H 0.01019 μM, Csubstrate = 0.5 mM) is reported as 5.617 min/E, the 1/Reaction rate (CB-f-P-R-H 0.01019 μM, Csubstrate = 2 mM) is reported as 1.457 min/E and the 1/Reaction rate (CB-f-P-R-H 0.01019 μM, Csubstrate = 4 mM) is reported as 0.8217 min/E. For the same compound, the 1/Reaction rate (CB-f-P-R-H 0.02038 μM, Csubstrate = 0.5 mM) was 5.565 min/E, the 1/Reaction rate (CB-f-P-R-H 0.02038 μM, Csubstrate = 2 mM) was 1.457 min/E and the 1/Reaction rate (CB-f-P-R-H 0.02038 μM, Csubstrate = 4 mM) was 0.8192 min/E. The 1/Reaction rate (CB-f-P-R-H 0.04076 μM, Csubstrate = 0.5 mM) was 5.569 min/E, the 1/Reaction rate (CB-f-P-R-H 0.04076 μM, Csubstrate = 2 mM) was 1.454 min/E and the 1/Reaction rate (CB-f-P-R-H 0.04076 μM, Csubstrate = 4 mM) was 0.8174 min/E. It also gave a 1/Reaction rate (CB-f-P-R-H 0.08152 μM, Csubstrate = 0.5 mM) of 5.572 min/E, a 1/Reaction rate (CB-f-P-R-H 0.08152 μM, Csubstrate = 2 mM) of 1.467 min/E and a 1/Reaction rate (CB-f-P-R-H 0.08152 μM, Csubstrate = 4 mM) of 0.8218 min/E. It also gave a 1/Reaction rate (CB-f-P-R-H 0.10190 μM, Csubstrate = 0.5 mM) of 5.619 min/E, a 1/Reaction rate (CB-f-P-R-H 0.10190 μM, Csubstrate = 2 mM) of 1.463 min/E and a 1/Reaction rate (CB-f-P-R-H 0.10190 μM, Csubstrate = 4 mM) of 0.8156 min/E. The 1/Reaction rate (CB-f-P-R-H 0.16304 μM, Csubstrate = 0.5 mM) was 5.675 min/E, the 1/Reaction rate (CB-f-P-R-H 0.16304 μM, Csubstrate = 2 mM) was 1.485 min/E and the 1/Reaction rate (CB-f-P-R-H 0.16304 μM, Csubstrate = 4 mM) was 0.8333 min/E. The 1/Reaction rate (CB-f-P-R-H 0.20380 μM, Csubstrate = 0.5 mM) was 5.619 min/E, the 1/Reaction rate (CB-f-P-R-H 0.20380 μM, Csubstrate = 2 mM) was 1.473 min/E and the 1/Reaction rate (CB-f-P-R-H 0.20380 μM, Csubstrate = 4 mM) was 0.8238 min/E. It also gave a 1/Reaction rate (CB-f-P-R-H 0.32609 μM, Csubstrate = 0.5 mM) of 5.69 min/E, a 1/Reaction rate (CB-f-P-R-H 0.32609 μM, Csubstrate = 2 mM) of 1.486 min/E and a 1/Reaction rate (CB-f-P-R-H 0.32609 μM, Csubstrate = 4 mM) of 0.832 min/E. The 1/Reaction rate (CB-f-P-R-H 0.40761 μM, Csubstrate = 0.5 mM) was 5.694 min/E, the 1/Reaction rate (CB-f-P-R-H 0.40761 μM, Csubstrate = 2 mM) was 1.489 min/E and the 1/Reaction rate (CB-f-P-R-H 0.40761 μM, Csubstrate = 4 mM) was 0.8338 min/E. It also gave a 1/Reaction rate (CB-f-P-R-H 0.65217 μM, Csubstrate = 0.5 mM) of 5.785 min/E, a 1/Reaction rate (CB-f-P-R-H 0.65217 μM, Csubstrate = 2 mM) of 1.51 min/E and a 1/Reaction rate (CB-f-P-R-H 0.65217 μM, Csubstrate = 4 mM) of 0.8514 min/E. The 1/Reaction rate (CB-f-P-R-H 0.81522 μM, Csubstrate = 0.5 mM) was 5.868 min/E, the 1/Reaction rate (CB-f-P-R-H 0.81522 μM, Csubstrate = 2 mM) was 1.521 min/E and the 1/Reaction rate (CB-f-P-R-H 0.81522 μM, Csubstrate = 4 mM) was 0.8494 min/E. It also gave a 1/Reaction rate (CB-f-P-R-H 1.30435 μM, Csubstrate = 0.5 mM) of 5.959 min/E, a 1/Reaction rate (CB-f-P-R-H 1.30435 μM, Csubstrate = 2 mM) of 1.562 min/E and a 1/Reaction rate (CB-f-P-R-H 1.30435 μM, Csubstrate = 4 mM) of 0.8735 min/E. It also gave a 1/Reaction rate (CB-f-P-R-H 1.63043 μM, Csubstrate = 0.5 mM) of 6.263 min/E, a 1/Reaction rate (CB-f-P-R-H 1.63043 μM, Csubstrate = 2 mM) of 1.591 min/E and a 1/Reaction rate (CB-f-P-R-H 1.63043 μM, Csubstrate = 4 mM) of 0.9021 min/E. The 1/Reaction rate (CB-f-P-R-H 2.60870 μM, Csubstrate = 0.5 mM) was 6.441 min/E, the 1/Reaction rate (CB-f-P-R-H 2.60870 μM, Csubstrate = 2 mM) was 1.672 min/E and the 1/Reaction rate (CB-f-P-R-H 2.60870 μM, Csubstrate = 4 mM) was 0.9317 min/E. It also gave a 1/Reaction rate (CB-f-P-R-H 3.26087 μM, Csubstrate = 0.5 mM) of 6.663 min/E, a 1/Reaction rate (CB-f-P-R-H 3.26087 μM, Csubstrate = 2 mM) of 1.715 min/E and a 1/Reaction rate (CB-f-P-R-H 3.26087 μM, Csubstrate = 4 mM) of 0.9448 min/E. For the same compound, the 1/Reaction rate (CB-f-P-R-H 4.89130 μM, Csubstrate = 0.5 mM) was 7.084 min/E, the 1/Reaction rate (CB-f-P-R-H 4.89130 μM, Csubstrate = 2 mM) was 1.84 min/E and the 1/Reaction rate (CB-f-P-R-H 4.89130 μM, Csubstrate = 4 mM) was 1.026 min/E. For the same compound, the 1/Reaction rate (CB-f-P-R-H 6.52174 μM, Csubstrate = 0.5 mM) was 7.613 min/E, the 1/Reaction rate (CB-f-P-R-H 6.52174 μM, Csubstrate = 2 mM) was 1.979 min/E and the 1/Reaction rate (CB-f-P-R-H 6.52174 μM, Csubstrate = 4 mM) was 1.106 min/E. It also gave a 1/Reaction rate (CB-f-P-R-H 8.15217 μM, Csubstrate = 0.5 mM) of 8.377 min/E, a 1/Reaction rate (CB-f-P-R-H 8.15217 μM, Csubstrate = 2 mM) of 2.149 min/E and a 1/Reaction rate (CB-f-P-R-H 8.15217 μM, Csubstrate = 4 mM) of 1.173 min/E. The 1/Reaction rate (CB-f-P-R-H 13.04348 μM, Csubstrate = 0.5 mM) was 9.739 min/E, the 1/Reaction rate (CB-f-P-R-H 13.04348 μM, Csubstrate = 2 mM) was 2.499 min/E and the 1/Reaction rate (CB-f-P-R-H 13.04348 μM, Csubstrate = 4 mM) was 1.359 min/E. For the same compound, the “Intersect of regression curve 1/reaction rate vs ligand concentration” value (“Intersect … vs ligand concentration” for short) (Csubstrate 0.5 mM) was 5.5934 min/E, the “Slope of regression curve 1/reaction rate vs ligand concentration” value (“Slope … vs ligand concentration” below) (Csubstrate 0.5 mM) was 0.3216 min/E μM and the “Intersect … vs ligand concentration” value (Csubstrate 2 mM) was 1.4588 min/E. The “Slope … vs ligand concentration” value (Csubstrate 2 mM) was 0.0806 min/E μM, the “Intersect … vs ligand concentration” value (Csubstrate 4 mM) was 0.8202 min/E and the “Slope … vs ligand concentration” value (Csubstrate 4 mM) was 0.0421 min/E μM. For the same compound, the Ki (average of three Ki values, read-out: KiM average F Xa binding constant) was 16.9 µM, the Ki (intersection of regression curves Csubstrate 2 and 0.5 mM, read-out: Ki2&3 F Xa binding constant) was 17.2 µM and the Ki (intersection of regression curves Csubstrate 4 and 0.5 mM, read-out: Ki1&3 F Xa binding constant) was 17.1 µM. The Ki (intersection of regression curves Csubstrate 4 and 2 mM, read-out: Ki1&2 F Xa binding constant) was 16.6 µM and the “binding of the peptide aldehyde with F Xa (reversible or irreversible)” value (intersections of regression curves not on the x axis) was “reversible”.
